Laboratory results reported in patent publication US20040127567A1, “Novel methods for treating disorders in which docosahexaenoic acid (DHA) levels are affected” (Beth Israel Deaconess Medical Center, Inc., priority 1998, published 2004).
Values joined by “and” are separate entries in the source; they are usually repeats but may differ in a detail not shown here. Equal values may be shown once. “Also recorded” adds a separate entry of the source.

Tests used:
Type in all cases: in vivo, mouse
[1] = Plasma levels of DHA in mice fed DHA; settings: for Plasma level of DHA: values for two different mice
Method: Mouse pancreatic acinar and lung cell suspensions were prepared from wild type (n=3) and CFTR−/− mice (n=3) by enzymatic and mechanical dissociation. In addition, brain, kidney, heart, spleen, and blood were sonicated in 0.3M sucrose buffer. Membrane lipids were extracted from cell and organ preparations with 20 volumes of chloroform-methanol 2:1 (v/v), transmethylated with 0.5 mL of 0.1 N methanolic-NaOH/BF3 reagent, and the resulting fatty acid methyl esters analyzed by gas chromatography/mass spectrometry (GC/MS). In a different set of experiments, lipids were fractionated by aminopropyl column chromatography into triglycerides, cholesterol esters, and phosphoglycerides and the fatty acid composition of each lipid class determined by a combination of enzymatic hydrolysis, transmethylation, and GC/MS.
Cystic fibrosis (UNC strain) and wild type mice (12-20 grams body weight) were fed with a complete liquid enteral formulation (Peptamen™, Nestle Clinical Nutrition, Inc.) supplemented with different quantities of the DHA-containing formulation Neuromins (Nature's Way Products Inc., Springville, Utah). DHA content in the Neuromins formulation was 100 mg per 500 mg of formulation. Mice were fed once a day at about 11 a.m., seven days a week with 20 ml of Peptamen™ supplemented with the various amounts of either Neuramins, free DHA (Sigma Chemical Co., MO) or DHA-ethyl ester (Nu-Check-Prep, Inc. MN) ranging from 0.5 mg/day of DHA to 40 mg/day of DHA.
Plasma levels of DHA in CF and wild-type mice were measured as described above in the method section.
Since the pancreas and the lung are the two primary organs affected in cystic fibrosis, AA and DHA levels in cell preparations of these organs and in wild-type and CFTR−/− mice were quantitated by GC/MS analysis. Lipids were extracted from cell suspensions, tissue homogenates, and blood plasma with 6 volumes of chloroform-methanol (2:1, v/v). The resulting emulsions were centrifuged at 600 g for 3 min and the lower phase containing the lipids was collected. This procedure was repeated twice and the lower phases from the two extractions combined. Aliquots of 30 μL of heptadecanoic acid (17:0) (1 mg/ml) were added to the extracts and used as an internal standard. Samples were evaporated to dryness under nitrogen. The resulting lipids were subsequently transmethylated using the 0.1N methanolic NaOH/boron tri fluoride reagent (Alvarez et al., (1995) Mol. Reprod. Dev. 42:334-346). The resulting fatty acid methyl esters were analyzed by Hewlett Packard GC/MS mounted with a WCOT capillary column (Supelcowax-10, 30 m×0.53 mm I.D., 1 μm film thickness) with initial and final temperatures in the column oven of 150° C. and 250° C., respectively, programmed to increase at a rate of 10° C./min. Fatty acid methyl ester peaks were identified by comparison of retention times of standard fatty acid mixtures and by mass spectrometry, and quantified using methylheptadecanoate as the internal standard. In some studies, the different lipid classes including cholesterol esters, triglycerides, free fatty acids, and glycerolipids, were also fractionated from cell and tissue extracts by aminopropyl column chromatography and the corresponding fatty acid methyl esters prepared and analyzed (Alvarez et al., (1992) J. Chromatogr. B. 577:142-145). In order to determine the fatty acids bound to the sn-2 position of lipids, the phospholipid fraction obtained by aminopropyl column chromatography was incubated at 37° C. for 15 min in 0.5 ml of PBS containing 250 units of phospholipase A2, and the resulting fatty acids methylated and analyzed by GC/MS (Alvarez et al., (1995) Mol. Reprod. Dev. 42:334-346).

[2] = system: wild-type pregnant mice; test: DHA administration to wild-type pregnant mice: fetal lung surfactant (DPPC), fetal lung and brain DHA
Excerpt: The invention also provides a method for improving the amount of fetal lung surfactant in a mouse model. It appears that this is accomplished by upregulating fetal lung surfactant biosynthesis during pregnancy. This method again utilizes giving high doses of DHA which increases DHA and fetal surfactant levels in the fetal lung. Gestation in mice lasts about 19.5 days and previous reports have shown that surfactant levels in amniotic fluid are not detected until after day 16.5, equivalent to about 30 to 32 weeks gestational age in humans. Wild-type C57 mice were bred and identification of the cervical plug was used to determine the occurrence of pregnancy and gestational age. Beginning on day 9.5 of pregnancy (equivalent to about 24 weeks of gestational age in humans), mice were placed on Peptamen™ ±DHA for one week at different doses and sacrificed on day 16.5. Following sacrifice, amniotic fluid was aspirated from the amniotic sacs, and DPPC concentration determined by micro-HPTLC. In a different set of experiments, fetal lung and brain were removed, homogenized, lipids extracted with chloroform-methanol, and fatty acids transmethylated and analyzed by gas chromatography.

[3] = Tolerability observations in mice given DHA
[4] = day 16.5, 20 mg/day DHA to the pregnant mouse from day 9.5

CC/C=C\C/C=C\C/C=C\C/C=C\C/C=C\C/C=C\CCC(=O)O [DHA, docosahexaenoic acid]
Plasma level of DHA ([1]; CF mice, 0.5 mg/day DHA): 41 µg/mL and 40 µg/mL
Plasma level of DHA ([1]; CF mice, 2 mg/day DHA): 99 µg/mL and 77 µg/mL
Plasma level of DHA ([1]; CF mice, 10 mg/day DHA): 106 µg/mL and 133 µg/mL
Plasma level of DHA ([1]; CF mice, 40 mg/day DHA): 230 µg/mL and 263 µg/mL
DHA plasma level reached ([1]; CFTR−/− mice, 35 to 40 mg/day DHA in liquid enteral formulation): above 170 μg/ml
Plasma level of DHA ([1]; WT mice, 40 mg/day DHA): 214 µg/mL and 194 µg/mL
DHA plasma levels in CFTR−/− versus wild-type mice ([1]; increasing oral doses of DHA, p=0.5, n=3 (FIG. 6)): not significantly different
DHA in fetal brain (in words) ([2]; 10 or 20 mg DHA/day to preterm wild-type pregnant mice): significant increase in DHA in fetal brain
DPPC concentration in amniotic fluid ([2]; day 16.5, 5 mg/day DHA from day 9.5): 9.3 ± 2.6 µg/mL
DHA concentration in fetal brain ([2]; day 16.5, 10 mg/day DHA to the pregnant mouse from day 9.5): 15.6 ± 1.1 nmoles/mg protein
DPPC concentration in amniotic fluid ([2]; day 16.5, 20 mg/day DHA from day 9.5): 18.0 ± 3.6 µg/mL
DHA concentration in fetal brain [2, 4]: 28.9 ± 1.9 nmoles/mg protein
DHA concentration in fetal lung [2, 4]: 29.8 ± 5.5 nmoles/mg protein
Placental transfer ([2]; pregnant mice): readily crosses the placenta
Diarrhea ([3]; CFTR−/− or wild-type mice, 40 mg per day of DHA): No overt diarrhea
Side effects ([3]; treated pregnant mice and their newborns, monitored for up to one month): no obvious long-term side effects; also recorded: no observed side effects
